Experimental data taken from paper PMC5712521, “Dendrogenin A drives LXR to trigger lethal autophagy in cancers” (Nature Communications, 2017).

Legend:
B16F10 cells = test: Sterol analysis by GC/MS; assay type: cell-based, mouse; settings: B16F10, 24 h, 10 µM 22(R)HC, 1 µM GW, 100 nM TO
Description: Sterols in cell homogenates were extracted with a solvent mixture containing chloroform/methanol 2/1 (v/v) spiked with epicoprostanol as the internal standard. Lipids were partitioned in chloroform after the addition of saline and saponified by methanolic potassium hydroxide (0.5 N, 60 °C, 15 min). The fatty acids released were methylated with BF3-methanol (12%, 60 °C, 15 min) to not interfere with the chromatography of sterols. The sterols were re-extracted in hexane and silylated, as described previously. The trimethylsilylether derivatives of the sterols were separated by gas chromatography (GC) (Hewlett–Packard 6890 series) in a medium polarity capillary column RTX-65, (65% diphenyl 35% dimethyl polysiloxane, length 30 m, diameter 0.32 mm, film thickness 0.25 μm (Restesk, Evry, France)). The mass spectrometer (Agilent 5975 inert XL) in series with the GC was set up for the detection of positive ions. Ions were produced in the electron impact mode at 70 eV. Sterols were identified by the fragmentogram in the scanning mode and quantified by selective monitoring of the specific ions after normalization with the internal standard epicoprostanol and calibration with weighed standards. […]
Anal yses were perform ed by GC/MS. f Quantification of sterols accumulated in
m elanom a cells after 24 h treatm ent with 10 µM 22(R) HC, 1 µ M GW , 100 nM T O or solvent
vehicle. […]

[1] = system: RXRγ, FXR, SXR, PPARα, PPARγ, RARα, AHR, VDR, GR, PR, AR, ERα, ERβ; test: Gene reporter luciferase assays on other nuclear receptors; assay type: cell-based, human; settings: 2.5 µM DDA, 8 h, with or without cognate agonist
From the text: HEK293T were used for luciferase assays. Cells were transfected using the PolyEthylenImine (PEI) method with human retinoid-X receptor (RXRγ) and human liver-X-receptors (LXRα or LXRβ) with LXRE-Luc; RXRγ and human farnesoid X receptor (FXR) with EcRE-Luc; RXRγ and human steroid and xenobiotic X receptor (SXR) with DR4-Luc; RXRγ and human peroxisome proliferator activated receptors (PPARα, or PPARγ) with PPRE-Luc; RXRγ and human retinoic acid receptor (RARα) with DR1-Luc; human AHR and human ARNT with a DRE-Luc; human vitamin D receptor (VDR) with VDRE-Luc. Cells were transfected with plasmids encoding human glucocorticoid receptor (GR), progesterone receptor (PR), or androgen receptor (AR) with MMTV-Luc; or estrogen receptors (ERα and ERβ) with an ERE-Luc. The day after transfection with the luciferase reporter gene construct, cells were seeded in 12-well plates (50,000 cells per well). […] Luciferase activity was measured using the luciferase assay reagent (Promega), according to the manufacturer’s instructions. Protein concentrations were measured using the Bradford method to normalize luciferase activities. For each condition, luciferase activity was calculated from the data of three independent wells. […]

B16F10 tumors = test: B16F10 melanoma tumors in mice; assay type: in vivo; settings: mouse B16F10; i.p. 20 mg/kg/day
Description: Exponentially growing cells were harvested, washed twice in PBS then resuspended in PBS. SKMEL-28, shSKMEL-28 clones (5 × 10^6 cells) and B16F10 (3 × 10^5) cells were injected subcutaneously (s.c.) into the flank of nude mice. HL60, KG1 and shKG1-clones (5 × 10^6) were inoculated s.c. into the flanks of NOD/SCID mice. When tumors were palpable, animals (n = 10–20 mice per group, as indicated) were randomized to receive either DDA (20 mg/kg) intraperitoneally (i.p.) or 40 mg/kg by oral gavage (p.o), once a day, or vehicle solvent for the indicated time. Animals were examined daily and body weights were measured twice a week. In all experiments, tumor volume was determined by direct measurement with a caliper and was calculated using the formula (width^2 × length)/2. At the end of experiments, mice were sacrificed and tumors were excised and divided for intra-tumoral DDA quantification, immunoblotting, or immunohistochemistry analyses.

SMILES	Sterol amount/total sterol: 8-DHC (B16F10 cells)	Sterol amount/total sterol: zymostenol (B16F10 cells)	agonistic or antagonistic transcriptional activity on other NRs [1]	tumor growth (B16F10 tumors)
CC(C)CC[C@@H](O)[C@@H](C)[C@H]1CC[C@H]2[C@@H]3CC=C4C[C@@H](O)CC[C@]4(C)[C@H]3CC[C@]12C [22(R)HC, 22(R)-hydroxycholesterol]	0.08± 0.006	0.24± 0.08	–	–
CC(C)CCC[C@@H](C)[C@H]1CC[C@H]2[C@@H]3C[C@@H](NCCc4cnc[nH]4)[C@@]4(O)C[C@@H](O)CC[C@]4(C)[C@H]3CC[C@]12C [DDA, Dendrogenin A]	–	–	did not show any agonistic or antagonistic transcriptional activity	significantly reduced the growth
O=C(O)Cc1cccc(OCCCN(Cc2cccc(C(F)(F)F)c2Cl)CC(c2ccccc2)c2ccccc2)c1 [GW, GW3965]	0.05± 0.005	0.11 ± 0.08	–	–
O=S(=O)(c1ccccc1)N(CC(F)(F)F)c1ccc(C(O)(C(F)(F)F)C(F)(F)F)cc1 [TO, TO901317]	0.04± 0.005	0.12± 0.09	–	–
